Experimental data taken from article PMC9774391 (ACS Omega, 2022).

What was measured:
Cytotoxicity test (MTT) = assay type: cell-based; settings: NIH/3T3 mouse embryonic fibroblast cells (ATCC CRL-1658), NIH/3T3 mouse fibroblast healthy cell line
Description: The NIH/3T3 cells were incubated according to the manufacturer’s recommendations. In 96-well plates, NIH/3T3 cells were seeded at a density of 1 × 10^4 cells per well. The MTT test was conducted in line with the previously mentioned standards.[19],[22],[23],[28],[30]

MAO-B = molecular target: T1, MAO-B (Homo sapiens, UniProt P27338); test: In vitro MAO-B inhibition assay (fluorometric); assay type: biochemical; settings: for inhibition at 1000 µM: 10^–3 M; for inhibition at 100 µM: 10^–4 M
T1 sequence (P27338 1-520): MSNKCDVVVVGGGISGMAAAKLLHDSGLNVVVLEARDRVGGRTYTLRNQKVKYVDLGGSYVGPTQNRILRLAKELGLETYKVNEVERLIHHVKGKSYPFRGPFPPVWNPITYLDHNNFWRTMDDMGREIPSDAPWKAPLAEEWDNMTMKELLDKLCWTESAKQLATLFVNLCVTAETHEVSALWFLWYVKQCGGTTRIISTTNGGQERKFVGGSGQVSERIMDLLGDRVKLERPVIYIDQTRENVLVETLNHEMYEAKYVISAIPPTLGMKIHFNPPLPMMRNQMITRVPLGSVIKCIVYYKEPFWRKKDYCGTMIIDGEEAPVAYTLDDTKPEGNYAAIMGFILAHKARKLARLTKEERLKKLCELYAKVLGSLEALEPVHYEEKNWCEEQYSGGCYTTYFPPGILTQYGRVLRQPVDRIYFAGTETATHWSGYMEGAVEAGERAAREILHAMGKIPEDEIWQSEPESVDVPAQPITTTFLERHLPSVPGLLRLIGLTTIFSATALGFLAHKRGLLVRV

AChE = AChE (Homo sapiens, UniProt P22303); test: biochemical; settings: for inhibition at 1000 µM: 10^–3 M; for inhibition at 100 µM: 10^–4 M; for inhibition at 10 µM: 10^–5 M; for inhibition at 1 µM: 10^–6 M; for inhibition at 0.1 µM: 10^–7 M; for inhibition at 0.01 µM: 10^–8 M; for inhibition at 0.001 µM: 10^–9 M
Description: (§1) According to the modified Ellman approach outlined in our team’s earlier work, the AChE and BChE inhibitory activities of the obtained compounds were evaluated.[18]−[21]

BChE = BChE (Homo sapiens, UniProt P06276); test: biochemical; settings: for inhibition at 1000 µM: 10^–3 M; for inhibition at 100 µM: 10^–4 M; for inhibition at 10 µM: 10^–5 M; for inhibition at 1 µM: 10^–6 M; for inhibition at 0.1 µM: 10^–7 M; for inhibition at 0.01 µM: 10^–8 M; for inhibition at 0.001 µM: 10^–9 M
Description: as §1

[1] = DPPH free-radical scavenging activity assay; settings: for IC50: serial dilution 10^–3–10^–9 M, read-out: IC50 on DPPH antioxidant activity
Description: This approach is based on evaluating the free-radical scavenging abilities of the stable 1,1-diphenyl-2-picrylhydrazyl (DPPH) radical. To create the DPHH solution, 9.86 mg of DPPH was weighed and diluted to 25 mL with methanol. The test wells were then filled with 100 μL of the DPPH solution and 100 μL of the test solutions. Only 200 μL of methanol was used for the blank reading, while the control reading required the usage of 100 μL each of methanol and the DPPH solution. Following incubation, a spectrophotometric measurement at 517 nm was carried out.[26],[27]

MAO-A = molecular target: T2, MAO-A (Homo sapiens, UniProt P21397); test: In vitro MAO-A inhibition assay (fluorometric); assay type: biochemical; settings: for inhibition at 1000 µM: 10^–3 M; for inhibition at 100 µM: 10^–4 M
T2 sequence (P21397 1-527): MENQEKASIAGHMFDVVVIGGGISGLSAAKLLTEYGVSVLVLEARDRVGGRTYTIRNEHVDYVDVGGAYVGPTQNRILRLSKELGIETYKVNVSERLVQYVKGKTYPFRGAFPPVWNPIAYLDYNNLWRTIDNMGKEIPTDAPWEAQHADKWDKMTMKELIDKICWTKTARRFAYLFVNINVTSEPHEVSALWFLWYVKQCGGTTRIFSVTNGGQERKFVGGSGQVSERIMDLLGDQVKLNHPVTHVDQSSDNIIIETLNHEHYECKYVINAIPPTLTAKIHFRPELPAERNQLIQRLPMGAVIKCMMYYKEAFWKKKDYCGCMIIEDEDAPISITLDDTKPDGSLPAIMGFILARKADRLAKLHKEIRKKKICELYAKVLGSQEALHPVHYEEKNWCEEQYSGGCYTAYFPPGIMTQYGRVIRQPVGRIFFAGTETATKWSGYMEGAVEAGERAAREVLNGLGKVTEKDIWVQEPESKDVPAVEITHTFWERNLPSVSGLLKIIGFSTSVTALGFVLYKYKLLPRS

Beta Amyloid 1–42 (Aβ42) = molecular target: T3, Beta Amyloid 1–42 (Aβ42) (Homo sapiens, UniProt P05067); test: Beta Amyloid 1–42 (Aβ42) inhibitor screening assay; assay type: biochemical; settings: 10^–4 M; read-out: % β-amyloid plaque inhibition
T3 construct: The Beta Amyloid 1–42 (Aβ42) Ligand Screening Assay kit; purchased BioVision, Milpitas, CA
Source text: The Beta Amyloid 1–42 (Aβ42) Ligand Screening Assay kit (BioVision, Milpitas, CA) technique based on the fluorometric approach served as the basis for the experimental process.[21],[28],[29]

Chain of BChE (P06276 29-602): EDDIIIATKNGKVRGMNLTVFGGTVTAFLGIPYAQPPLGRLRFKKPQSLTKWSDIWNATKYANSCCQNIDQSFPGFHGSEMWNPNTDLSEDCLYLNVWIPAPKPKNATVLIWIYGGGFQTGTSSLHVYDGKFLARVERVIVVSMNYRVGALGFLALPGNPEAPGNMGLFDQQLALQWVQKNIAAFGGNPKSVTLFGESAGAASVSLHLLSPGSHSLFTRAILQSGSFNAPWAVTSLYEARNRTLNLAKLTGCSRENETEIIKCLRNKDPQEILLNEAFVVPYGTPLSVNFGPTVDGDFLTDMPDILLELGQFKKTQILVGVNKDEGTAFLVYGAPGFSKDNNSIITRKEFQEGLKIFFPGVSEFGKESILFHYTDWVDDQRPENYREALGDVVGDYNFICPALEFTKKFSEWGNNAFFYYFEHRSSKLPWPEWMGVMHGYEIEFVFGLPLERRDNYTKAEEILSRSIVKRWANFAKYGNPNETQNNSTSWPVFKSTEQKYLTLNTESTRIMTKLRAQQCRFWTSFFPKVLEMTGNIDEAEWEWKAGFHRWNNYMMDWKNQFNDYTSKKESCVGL
Chain of AChE (P22303 32-614): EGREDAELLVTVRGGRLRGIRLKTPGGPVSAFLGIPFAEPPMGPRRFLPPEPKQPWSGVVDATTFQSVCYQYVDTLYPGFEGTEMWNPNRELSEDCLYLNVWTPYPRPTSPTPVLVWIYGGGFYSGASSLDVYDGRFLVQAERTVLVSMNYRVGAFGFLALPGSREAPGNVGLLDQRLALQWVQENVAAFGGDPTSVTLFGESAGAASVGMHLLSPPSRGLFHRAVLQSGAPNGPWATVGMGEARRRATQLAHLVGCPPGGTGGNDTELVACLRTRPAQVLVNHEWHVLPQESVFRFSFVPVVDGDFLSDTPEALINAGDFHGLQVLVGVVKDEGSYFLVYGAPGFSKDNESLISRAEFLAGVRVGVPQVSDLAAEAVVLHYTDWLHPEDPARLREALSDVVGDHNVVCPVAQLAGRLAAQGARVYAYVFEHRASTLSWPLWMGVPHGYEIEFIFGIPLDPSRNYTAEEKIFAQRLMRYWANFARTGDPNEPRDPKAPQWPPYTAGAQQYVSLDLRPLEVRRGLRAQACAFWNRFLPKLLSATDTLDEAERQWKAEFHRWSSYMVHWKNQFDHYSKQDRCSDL
T3 sequence (P05067 672-713 limits assumed): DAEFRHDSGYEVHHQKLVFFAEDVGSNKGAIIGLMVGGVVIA

| SMILES | IC50 (Cytotoxicity test (MTT)) | inhibition at 1000 µM (MAO-B) | inhibition at 100 µM (MAO-B) | IC50 (AChE) | inhibition at 1000 µM (AChE) | inhibition at 100 µM (AChE) | inhibition at 10 µM (AChE) | inhibition at 1 µM (AChE) | inhibition at 0.1 µM (AChE) | inhibition at 0.01 µM (AChE) | inhibition at 0.001 µM (AChE) | inhibition at 1000 µM (BChE) | inhibition at 100 µM (BChE) | IC50 [1] | inhibition at 1000 µM (MAO-A) | inhibition at 100 µM (MAO-A) | inhibition at 100 µM (Beta Amyloid 1–42 (Aβ42)) | other results |
| --- | --- | --- | --- | --- | --- | --- | --- | --- | --- | --- | --- | --- | --- | --- | --- | --- | --- | --- |
| COc1ccc2c(c1)C/C(=C\c1ccc(NC(=O)CN3CCN(CCCO)CC3)cc1)C2=O [D19] | 10.5 ± 0.517 µM | 90.2 ± 1.46% | 43.2 ± 0.877% | 32.4 ± 1.2 nM | 95.2 ± 1.65% | 92.7 ± 1.25% | 89.2 ± 1.08% | 82.1 ± 0.988% | 70.7 ± 1.07% | 33.6 ± 0.624% | 20.6 ± 0.596% | 83.5 ± 1.37% | 32.5 ± 0.337% | 362 ± 15 nM | 60.9 ± 1.86% | 25.3 ± 0.632% |  | % DPPH free-radical scavenging activity ([1]; concentration not stated in the sentence (Figure 6)): ≥ 90% |
| COc1cc2c(cc1OC)C(=O)/C(=C/c1ccc(NC(=O)CN3CCN(CCCO)CC3)cc1)C2 [D21] | 39.5 ± 1.82 µM | 93.5 ± 1.38% | 46.2 ± 0.587% | 29.2 ± 0.8 nM | 95.7 ± 1.2% | 91.7 ± 1.47% | 87.3 ± 1.3% | 81.8 ± 1.1% | 70.6 ± 1% | 38.3 ± 0.678% | 19.3 ± 0.593% | 99.7 ± 2.82% | 40.6 ± 0.978% |  | 91.2 ± 1.21% | 26.9 ± 0.541% | > 50% |  |
| COc1ccc2c(c1)C/C(=C\c1ccc(NC(=O)CN3CCN(CCN(C)C)CC3)cc1)C2=O [D22] | 32.5 ± 0.523 µM | 85.3 ± 0.957% | 48.6 ± 0.605% | 52.7 ± 1.6 nM | 91.9 ± 1.47% | 86.6 ± 1.57% | 79 ± 1.17% | 70.4 ± 1.07% | 63.4 ± 0.988% | 43 ± 0.633% | 18.8 ± 0.521% | 99.5 ± 1.23% | 39.5 ± 0.97% |  | 76.9 ± 0.232% | 37.5 ± 0.411% | > 50% |  |
| COc1ccc2c(c1)C(=O)/C(=C/c1ccc(NC(=O)CN3CCN(CCN(C)C)CC3)cc1)C2 [D23] | 2.15 ± 0.127 µM | 81.3 ± 1.05% | 43.2 ± 0.884% | 51 ± 1.4 nM | 92.5 ± 1.57% | 87.6 ± 1.68% | 82.4 ± 1.21% | 70.1 ± 1.06% | 68.9 ± 0.945% | 35.5 ± 0.518% | 20.6 ± 0.418% | 99 ± 1.68% | 41.5 ± 0.741% |  | 78.2 ± 0.969% | 22.9 ± 0.497% | > 50% |  |
| COc1cc2c(cc1OC)C(=O)/C(=C/c1ccc(NC(=O)CN3CCN(CCCN(C)C)CC3)cc1)C2 [D27] | 10.5 ± 0.467 µM | 94.6 ± 1.02% | 43.1 ± 0.452% | 130 ± 4.2 nM | 91.2 ± 1.3% | 87.3 ± 1.12% | 82.1 ± 1.03% | 73.3 ± 0.994% | 41.2 ± 0.562% | 31.6 ± 0.389% | 22.5 ± 0.419% | 94.83 ± 0.731% | 35.9 ± 0.444% | 310 ± 13 nM | 95.08 ± 0.687% | 44.4 ± 2.29% |  |  |
| COc1ccc2c(c1)C/C(=C\c1ccc(NC(=O)CN(C)CCN(C)C)cc1)C2=O [D34] | 75.5 ± 2.18 µM | 78.5 ± 1.31% | 47.3 ± 0.676% | 191 ± 8.7 nM | 98.3 ± 1.11% | 91.1 ± 1.36% | 76 ± 1.12% | 63.4 ± 0.985% | 41.2 ± 0.528% | 32.5 ± 0.588% | 23.5 ± 0.429% | 91.6 ± 1.03% |  | 302 ± 14 nM | 82.1 ± 1.25% | 38.3 ± 0.458% |  | IC50 (BChE): 132 ± 5.1 nM; inhibition at 10 µM (BChE): 76.3 ± 1.14%; inhibition at 1 µM (BChE): 71.9 ± 1.01%; inhibition at 0.1 µM (BChE): 49.7 ± 0.856%; inhibition at 0.01 µM (BChE): 31.5 ± 0.405%; inhibition at 0.001 µM (BChE): 20.5 ± 0.399% |
| COc1ccc2c(c1)C(=O)/C(=C/c1ccc(NC(=O)CN(C)CCN(C)C)cc1)C2 [D35] | 53.9 ± 1.22 µM | 90.7 ± 1.25% | 42.5 ± 0.547% | 215 ± 8.8 nM | 95.7 ± 1.2% | 91.7 ± 1.47% | 73.2 ± 1.12% | 61.8 ± 1.08% | 42.9 ± 0.628% | 33.6 ± 0.52% | 21.5 ± 0.448% | 90.2 ± 1.39% |  | 238 ± 11 nM | 88.46 ± 0.758% | 21.7 ± 0.623% |  | IC50 (BChE): 151 ± 4.8 nM; inhibition at 10 µM (BChE): 74.6 ± 1.13%; inhibition at 1 µM (BChE): 65.9 ± 1.01%; inhibition at 0.1 µM (BChE): 54.9 ± 0.974%; inhibition at 0.01 µM (BChE): 33.4 ± 0.814%; inhibition at 0.001 µM (BChE): 18 ± 0.411% |
| O=C1O[C@H]([C@@H](O)CO)C(O)=C1O [ascorbic acid, reference compound] |  |  |  |  |  |  |  |  |  |  |  |  |  | 165 ± 7 nM |  |  |  | % DPPH free-radical scavenging (antioxidant) activity ([1]; 10^–3 M): 98.75% ± 1.67; % DPPH free-radical scavenging (antioxidant) activity ([1]; 10^–4 M): 95.22% ± 1.47 |
| O=C(O)CC(O)(CC(=O)O)C(=O)O [citric acid, reference compound] |  |  |  |  |  |  |  |  |  |  |  |  |  | 194 ± 9 nM |  |  |  | % DPPH free-radical scavenging (antioxidant) activity ([1]; 10^–3 M): 99.48% ± 1.45; % DPPH free-radical scavenging (antioxidant) activity ([1]; 10^–4 M): 94.26% ± 1.37 |
